Source: patent publication US4927855A, “Levorotatory isomer of benzhydrylsulfinyl derivatives” (priority 1986, dated 1990)

Legend:
[1] = Toxicity in male mice, intraperitoneal administration; format: in vivo
Experimental: (§1) The comparative tests which were undertaken with the levorotatory derivative according to the invention (Ex. 1; Code no.: CRL 40 982), the dextrorotatory derivative (CP1; Code no.: CRL 40 983) and the corresponding racemate (CP2; Code no.: CRL 40 476) have been summarized below. Unless indicated otherwise, the 3 products studied in these tests were administered intraperitoneally as a suspension in an aqueous solution of gum arabic, in a volume of 20 ml/kg to male mice and in a volume of 5 ml/kg to male rats.

[2] = Behavior in male mice (stimulant effects); format: in vivo; conditions: intraperitoneal
Experimental: as §1

Behavior in rats = format: in vivo, male rats; conditions: intraperitoneal; for behavior, reactivities and variations in the rectal temperature and pupil diameter: male rats, 64, 16, 4 and 1 mg/kg; for mydriatic action in male rats: all the doses used
Experimental: as §1
at a dose of 128 mg/kg, CRL 40 476 causes excitation with an increase in the fear ration for 2 h, exophthalmos for 1 h and mydriasis for 1 for 2 h;
at a dose of 32 mg/kg, CRL 40 476 causes excitation (transient, lasting 0.5 h) with an increase in the fear reaction for 1 h, exophthalmos for 0.5-1 h and mydriasis for 1-2 h;
at a dose of 8 mg/kg, CRL 40 476 causes exophthalmos for 0.5-1 h and mydriasis for 0.5 h;
at a dose of 2 mg/kg, CRL 40 476 induces transient mydriasis appearing 1 h after administration, whereas

[3] = Motor activity in mice (actimeter); format: in vivo, male mice; conditions: for motor activity: 128 mg/kg and to a lesser extent 64 mg/kg, intraperitoneal four hours before 30 min recording; for level and statistical significance of hyperactivity relative to CRL 40 476 / intensity of stimulant effect / hyperactivity relative to the other products: intraperitoneal four hours before the test; for level and statistical significance of hyperactivity relative to CRL 40 476: especially at 128 mg/kg
Experimental: as §1
The mice (6 per dose, 18 control animals) receive CRL 40 476, CRL 40 982 or CRL 40 983 four hours before being placed in an actimeter, where their motility is recorded for 30 minutes.

[4] = Pharmacokinetic study on dogs (plasma AUC, metabolism to CRL 40 467); format: in vivo; conditions: for AUCo^+9h of CRL 40 476, comparison between products administered: dogs, oral, 30 mg/kg, plasma, 0-9 h, stereoisomers not distinguished; for conversion to inactive metabolite CRL 40 467: in the organism
Text: to distinguish CRL 40 982 from the racemic and dextrorotatory compounds, a kinetic study of the metabolism was undertaken on dogs (group of four animals). In a randomized crossover procedure, each animal received the following at the rate of one oral administration per week: 2 administrations of CRL 40 476 (for assessment of the variations within individuals), 1 administration of CRL 40 982 and 1 administration of CRL 40 983. Following each of these administrations, the kinetics of the CRL 40 476 and CRL 40 467 present in the plasma were determined (without looking to see whether these two products were in the racemic, levorotatory and/or dextrorotatory form, because of the difficulties associated with determining the optical rotation of each of the optical isomers in a biological medium).
The dose administered for each of the test substances CRL 40 476, CRL 40 982 and CRL 40 983 was 30 mg/kg.
After administration of CRL 40 476, the said CRL 40 476 and its metabolite, CRL 40 467, are found in the plasma.
After the administration of CRL 40 982, the following are found in the plasma: the said CRL 40 982, which will be characterized and determined as being CRL 40 476 by way of convenience, in view of what has been said above, and a metabolite which will be characterized and determined as being CRL 40 467.
Likewise, after administration of CRL 40 983, the 2 corresponding products in the plasma will be characterized and determined as being CRL 40 476 and CRL 40 467.
The curves of the plasma concentrations of the said CRL 40 476 and CRL 40 467 as a function of time are plotted from time […] to time T=+9 h after administration of the CRL 40 476, CRL 40 982 and CRL 40 983. The areas under the curves (AUCo^+9h) are then calculated.

[5] = Activity and lethality of the metabolite CRL 40 467 in male mice; format: in vivo
[6] = Immunostimulant effect in vitro
Human clinical trials = format: in vivo
Solubility of CRL 40 982 = conditions: alcohols, acetone, water, ether
[7] = male mice, intraperitoneal, 1024, 512, 256, 128 and 64 mg/kg
[8] = human, once or twice a day, tablets or gelatin capsules of 50 to 100 mg

Row | Structure (SMILES) | LDO (maximum non-lethal dose) [1] | stimulant effects in male mice [2] | behavior, reactivities and variations in the rectal temperature and pupil diameter (Behavior in rats) | stimulant effects in male rats (Behavior in rats; male rats) | mydriatic action in male rats (Behavior in rats; male rats) | motor activity [3] | level and statistical significance of hyperactivity relative to CRL 40 476 [3] | AUCo^+9h of CRL 40 476, comparison between products administered [4] | intensity of stimulant effect / hyperactivity relative to the other products [3] | conversion to inactive metabolite CRL 40 467 [4] | other results
1 | NC(=O)C[S+]([O-])C(c1ccccc1)c1ccccc1 (single isomer, unassigned; (+)) [CRL 40 983, (+)-benzhydrylsulfinylacetamide] | greater than or equal to 512 mg/kg | have stimulant effects | substantially comparable to those of the control group | do not have stimulant effects | devoid of this mydriatic action | increase in the motor activity | greater than those due to CRL 40 476 | not statistically different | – | – | conversion to inactive metabolite CRL 40 467 ([4]; listed as dextrorotatory derivative): a very high proportion
2 | O=C(O)C[S+]([O-])C(c1ccccc1)c1ccccc1 (racemic) [CRL 40 467, (±)-benzhydrylsulfinylacetic acid] | – | – | – | – | – | – | – | – | – | – | activity of metabolite ([5]; male mice, intraperitoneal, 64-1024 mg/kg): inactive; death of animals treated [5, 7]: does not cause the death of any of the animals treated; duration of brief sedation [5, 7]: 50 to 60 min; psychotropic activity ([5]; neuropsychopharmacological study): did not reveal any psychotropic activity
3 | NC(=O)C[S+]([O-])C(c1ccccc1)c1ccccc1 (racemic) [CRL 40 476, (±)-benzhydrylsulfinylacetamide] | greater than or equal to 512 mg/kg | have stimulant effects | – | is a stimulant | has a mydriatic action at all the doses used | increase in the motor activity | – | not statistically different | less than that obtained with either CRL 40 982 or CRL 40 983 | partially converted to (±)-benzhydrylsulfinylacetic acid | transient mydriasis, time of appearance after administration (Behavior in rats; male rats, 2 mg/kg): 1 h; exophthalmos, duration (Behavior in rats; male rats, 8 mg/kg): 0.5 to 1 h; mydriasis, duration (Behavior in rats; male rats, 8 mg/kg): 0.5 h; excitation (transient), duration (Behavior in rats; male rats, 32 mg/kg): 0.5 h; exophthalmos, duration (Behavior in rats; male rats, 32 mg/kg): 0.5 to 1 h; increase in the fear reaction, duration (Behavior in rats; male rats, 32 mg/kg): 1 h; mydriasis, duration (Behavior in rats; male rats, 32 mg/kg): 1 to 2 h; excitation with increase in the fear reaction, duration (Behavior in rats; male rats, 128 mg/kg): 2 h; exophthalmos, duration (Behavior in rats; male rats, 128 mg/kg): 1 h
4 | NC(=O)C[S+]([O-])C(c1ccccc1)c1ccccc1 (single isomer, unassigned; (-)) [CRL 40 982, (-)-benzhydrylsulfinylacetamide] | – | have stimulant effects | substantially comparable to those of the control group | do not have stimulant effects | devoid of this mydriatic action | increase in the motor activity | greater than those due to CRL 40 476 | approximately twice | stimulant effect equal in intensity to that observed with CRL 40 983 | only a small proportion of this product is converted to inactive CRL 40 467 | LD30 [1]: about 512 mg/kg; relative toxicity [1]: more toxic than CRL 40 983 (CP1) and CRL 40 476 (CP2); bioavailability ([4]; relative to racemic CRL 40 476 and dextrorotatory CRL 40 983): better bioavailability than the racemic compound CRL 40 476 and the dextrorotatory compound CRL 40 983; immunostimulant effect [6]: immunostimulant effect was also observed; long-term clinical action (Human clinical trials; human, long term): arousing substance useful for hypersomnia; improvement in Alzheimer's disease (Human clinical trials; [8]): improvement of the symptoms of dementia, memory disorders, aphasia and ideomotor apraxia; stimulant neuropsychopharmacological profile (Human clinical trials; [8]): different stimulant neuropsychopharmacological profile from that of the amphetamines and tricyclic antidepressants; activity towards symptoms of dementia and loss of memory (Human clinical trials; human, short and long term, especially in the elderly): particularly active towards the symptoms of dementia and loss of memory; short-term clinical action (Human clinical trials; human, short term): purely hypnogenic, antiarousing substance; half-life (Human clinical trials; in vivo, human clinical trials, read-out: elimination half-life (converted)): ~10 h; solubility (Solubility of CRL 40 982): soluble in alcohols and acetone and insoluble in water and ether
